Laboratory results reported in patent US20190077802A1, “DIFLUORO-(2-SUBSTITUTED CARBAMOYL-1,6-DIAZA-BICYCLO [3.2.1] OCT-6-YLOXY) ACETIC ACID COMPOUNDS AND THEIR USE IN TREATMENT OF BACTERIAL INFECTIONS” (WOCKHARDT LIMITED, priority 2015, published 2019).
Values after ≈ are worked out from the molar mass of the structure shown.

What was measured:
Test in all cases: Agar dilution MIC (CLSI)
KP ATCC 700603 = type: cell-based, K. pneumoniae; conditions: Klebsiella pneumoniae, ATCC700603, Mueller Hinton Agar
Experimental: (§1) The biological activity of representative compounds according to the invention against various bacterial strains was investigated. In a typical study, overnight grown bacterial cultures were diluted appropriately and inoculated on the agar media containing doubling dilutions of the test compounds. Observations for growth or no growth was performed after 16-20 hours of incubation at 35±2° C. in the ambient air. The overall procedure was performed as per Clinical and Laboratory Standards Institute (CLSI) recommendations, (Clinical and Laboratory Standards Institute (CLSI), Performance Standards for Antimicrobial Susceptibility Testing, 20th Informational Supplement, M07-A9, Volume 32, No. 2, 2012). Molten Mueller Hinton Agar (MHA) (BD, USA) containing serial dilutions of each antibacterial agent were poured on to the plates and allowed to solidify. Appropriate suspensions from the freshly grown cultures were prepared in normal saline so that about 10^4 CFU/spot of the organism was delivered on to the drug containing agar plates using automated multipoint inoculator (Mast, UK). The plates were incubated in Biochemical oxygen demand (BOD) incubator at 37° C. for 18 hours and then examined for growth.
(§2) The Table 2 depicts the antibacterial activity profile of compounds according to present invention against various multidrug resistant bacterial strains.

E. coli 13351 = type: cell-based; conditions: Escherichia coli, Mueller Hinton Agar
Experimental: as §1, §2

E. coli 13352 = type: cell-based; conditions: Escherichia coli, Mueller Hinton Agar
Experimental: as §1, §2

E. coli 13353 = type: cell-based; conditions: Escherichia coli, Mueller Hinton Agar
Experimental: as §1, §2

E. coli 7 MP = type: cell-based; conditions: Escherichia coli, Mueller Hinton Agar
Experimental: as §1, §2

E. coli M 138 = type: cell-based; conditions: Escherichia coli, M138, Mueller Hinton Agar
Experimental: as §1, §2

E. coli M 36 = type: cell-based; conditions: Escherichia coli, M36, Mueller Hinton Agar
Experimental: as §1, §2

E. coli M 49 = type: cell-based; conditions: Escherichia coli, M49, Mueller Hinton Agar
Experimental: as §1, §2

E. coli M 50 = type: cell-based; conditions: Escherichia coli, M50, Mueller Hinton Agar
Experimental: as §1, §2

E. coli S 18 = type: cell-based; conditions: Escherichia coli, S18, Mueller Hinton Agar
Experimental: as §1, §2

K. pneumoniae H 521 = type: cell-based; conditions: Klebsiella pneumoniae, H521, Mueller Hinton Agar
Experimental: as §1, §2

K. pneumoniae H 522 = type: cell-based; conditions: Klebsiella pneumoniae, H522, Mueller Hinton Agar
Experimental: as §1, §2

K. pneumoniae H 523 = type: cell-based; conditions: Klebsiella pneumoniae, H523, Mueller Hinton Agar
Experimental: as §1, §2

K. pneumoniae H 525 = type: cell-based; conditions: Klebsiella pneumoniae, H525, Mueller Hinton Agar
Experimental: as §1, §2

E. coli H 483 = type: cell-based; conditions: Escherichia coli, H483, Mueller Hinton Agar
Experimental: as §1, §2

MIC (KP ATCC 700603)	MIC (E. coli 13351)	MIC (E. coli 13352)	MIC (E. coli 13353)	MIC (E. coli 7 MP)	MIC (E. coli M 138)	MIC (E. coli M 36)	MIC (E. coli M 49)	MIC (E. coli M 50)	MIC (E. coli S 18)	MIC (K. pneumoniae H 521)	MIC (K. pneumoniae H 522)	MIC (K. pneumoniae H 523)	MIC (K. pneumoniae H 525)	MIC (E. coli H 483)	Structure (SMILES)
> 32 µg/mL	2 µg/mL (≈ 5.29 µM)	2 µg/mL (≈ 5.29 µM)	2 µg/mL (≈ 5.29 µM)	4 µg/mL (≈ 10.6 µM)	2 µg/mL (≈ 5.29 µM)	2 µg/mL (≈ 5.29 µM)	8 µg/mL (≈ 21.1 µM)	2 µg/mL (≈ 5.29 µM)	2 µg/mL (≈ 5.29 µM)	4 µg/mL (≈ 10.6 µM)	2 µg/mL (≈ 5.29 µM)	2 µg/mL (≈ 5.29 µM)	2 µg/mL (≈ 5.29 µM)		O=C(NOC[C@@H]1CCCN1)[C@@H]1CC[C@@H]2CN1C(=O)N2OC(F)(F)C(=O)O [Example 1]
> 32 µg/mL	1 µg/mL (≈ 2.64 µM)	1 µg/mL (≈ 2.64 µM)	0.5 µg/mL (≈ 1.32 µM)	2 µg/mL (≈ 5.29 µM)	1 µg/mL (≈ 2.64 µM)	0.5 µg/mL (≈ 1.32 µM)	2 µg/mL (≈ 5.29 µM)	1 µg/mL (≈ 2.64 µM)		1 µg/mL (≈ 2.64 µM)	1 µg/mL (≈ 2.64 µM)	1 µg/mL (≈ 2.64 µM)	1 µg/mL (≈ 2.64 µM)		O=C(NOC[C@H]1CCCN1)[C@@H]1CC[C@@H]2CN1C(=O)N2OC(F)(F)C(=O)O [Example 2]
> 32 µg/mL	4 µg/mL (≈ 11 µM)	4 µg/mL (≈ 11 µM)	4 µg/mL (≈ 11 µM)	8 µg/mL (≈ 22 µM)	4 µg/mL (≈ 11 µM)	4 µg/mL (≈ 11 µM)	8 µg/mL (≈ 22 µM)	4 µg/mL (≈ 11 µM)	16 µg/mL (≈ 43.9 µM)	4 µg/mL (≈ 11 µM)	4 µg/mL (≈ 11 µM)	4 µg/mL (≈ 11 µM)	4 µg/mL (≈ 11 µM)	> 32 µg/mL	O=C(NOC1CCNC1)[C@@H]1CC[C@@H]2CN1C(=O)N2OC(F)(F)C(=O)O (some centres unmarked) [Example 3]
> 32 µg/mL		1 µg/mL (≈ 2.55 µM)	1 µg/mL (≈ 2.55 µM)	2 µg/mL (≈ 5.1 µM)	2 µg/mL (≈ 5.1 µM)	1 µg/mL (≈ 2.55 µM)	4 µg/mL (≈ 10.2 µM)	2 µg/mL (≈ 5.1 µM)	2 µg/mL (≈ 5.1 µM)	2 µg/mL (≈ 5.1 µM)	1 µg/mL (≈ 2.55 µM)	1 µg/mL (≈ 2.55 µM)	1 µg/mL (≈ 2.55 µM)	> 32 µg/mL	O=C(NOC[C@H]1CCCCN1)[C@@H]1CC[C@@H]2CN1C(=O)N2OC(F)(F)C(=O)O [Example 4]
> 32 µg/mL	8 µg/mL (≈ 20.4 µM)	4 µg/mL (≈ 10.2 µM)	4 µg/mL (≈ 10.2 µM)	8 µg/mL (≈ 20.4 µM)	4 µg/mL (≈ 10.2 µM)	4 µg/mL (≈ 10.2 µM)	8 µg/mL (≈ 20.4 µM)	4 µg/mL (≈ 10.2 µM)	4 µg/mL (≈ 10.2 µM)	4 µg/mL (≈ 10.2 µM)	4 µg/mL (≈ 10.2 µM)	4 µg/mL (≈ 10.2 µM)	4 µg/mL (≈ 10.2 µM)		O=C(NOC[C@@H]1CCCCN1)[C@@H]1CC[C@@H]2CN1C(=O)N2OC(F)(F)C(=O)O [Example 5]
> 32 µg/mL	2 µg/mL (≈ 4.92 µM)	2 µg/mL (≈ 4.92 µM)	1 µg/mL (≈ 2.46 µM)	4 µg/mL (≈ 9.84 µM)	2 µg/mL (≈ 4.92 µM)	1 µg/mL (≈ 2.46 µM)	8 µg/mL (≈ 19.7 µM)	2 µg/mL (≈ 4.92 µM)	2 µg/mL (≈ 4.92 µM)	2 µg/mL (≈ 4.92 µM)	2 µg/mL (≈ 4.92 µM)	2 µg/mL (≈ 4.92 µM)	1 µg/mL (≈ 2.46 µM)	> 32 µg/mL	O=C(NOC[C@H]1CCCCCN1)[C@@H]1CC[C@@H]2CN1C(=O)N2OC(F)(F)C(=O)O [Example 6]
> 32 µg/mL	2 µg/mL (≈ 4.92 µM)	2 µg/mL (≈ 4.92 µM)	4 µg/mL (≈ 9.84 µM)	4 µg/mL (≈ 9.84 µM)	4 µg/mL (≈ 9.84 µM)	4 µg/mL (≈ 9.84 µM)	2 µg/mL (≈ 4.92 µM)	2 µg/mL (≈ 4.92 µM)		2 µg/mL (≈ 4.92 µM)	2 µg/mL (≈ 4.92 µM)	2 µg/mL (≈ 4.92 µM)	2 µg/mL (≈ 4.92 µM)		O=C(NOC[C@@H]1CCCCCN1)[C@@H]1CC[C@@H]2CN1C(=O)N2OC(F)(F)C(=O)O [Example 7]
> 32 µg/mL	4 µg/mL (≈ 11.8 µM)	4 µg/mL (≈ 11.8 µM)	4 µg/mL (≈ 11.8 µM)	8 µg/mL (≈ 23.6 µM)	4 µg/mL (≈ 11.8 µM)	2 µg/mL (≈ 5.91 µM)	4 µg/mL (≈ 11.8 µM)	4 µg/mL (≈ 11.8 µM)	4 µg/mL (≈ 11.8 µM)	4 µg/mL (≈ 11.8 µM)	4 µg/mL (≈ 11.8 µM)	4 µg/mL (≈ 11.8 µM)	4 µg/mL (≈ 11.8 µM)	> 32 µg/mL	NCCONC(=O)[C@@H]1CC[C@@H]2CN1C(=O)N2OC(F)(F)C(=O)O [Example 8]
